This series relates to influenza virus (WSN strain). Type of series: cell-based.

As for “DOCK11 #2: lentivirus-expressed shRNA against DOCK11 gene, SEQ ID NO: 2, used in Examples 3, 4, 6, 8, 12 (guide CCGGGTACTAGACACCATATCATTTCTCGAGAAATGATATGGTGTCTAGTACTTTTTG)”, the “localization of nucleoproteins of influenza virus in the nucleus of the host cell” value is “suppressed”.

Source of the values: patent US10709727B2, “Antiviral drugs” (priority 2015, dated 2020).
